Results published in patent publication US12187705B2, “Heteroaryl-triazole and heteroaryl-tetrazole compounds as pesticides” (Bayer Aktiengesellschaft, priority 2018, dated 2025).

Key:
Assay type in all cases: in vivo
[1] = test system: Myzus persicae; assay: Myzus persicae spray test; conditions: in Brassica rapa, foliar, 120 h
Procedure: Myzus persicae—Spray Test
(§1) To produce a suitable preparation of active compound, 1 part by weight of active compound is mixed with the stated amount of solvents and is diluted with water, containing an emulsifier concentration of 1000 ppm, to the desired concentration. Further test concentrations are prepared by dilution with emulsifier containing water.
Chinese cabbage (Brassica pekinensis) leaf disks infected with all instars of the green peach aphid (Myzus persicae), are sprayed with a preparation of the active ingredient of the desired concentration.
(§2) After 5 days mortality in % is determined. 100% means all aphids have been killed and 0% means none of the aphids have been killed.

[2] = test system: Diabrotica balteata; assay: Diabrotica balteata spray test; conditions: Diabrotica balteata, 168 h; 160 μg/well, wheat seeds, after 7 days; read-out: efficacy (seedlings grown)
Procedure: Diabrotica balteata—Spray Test
as §1, with “solvent,” for “solvents”, “and the concentrate” for “and”
Soaked wheat seeds (Triticum aestivum) are placed in a multiple well plate filled with agar and some water and are incubated for 1 day to germinate (5 seeds per well). The germinated wheat seeds are sprayed with a test solution containing the desired concentration of the active ingredient. Afterwards each unit is infected with 10-20 larvae of the banded cucumber beetle (Diabrotica balteata).
After 7 days efficacy in % is determined. 100% means all the seedlings have grown up like in the untreated, uninfected control; 0% means none of the seedlings have grown.

[3] = test system: Myzus persicae; assay: Myzus persicae oral test; conditions: 120 h
Procedure: To produce a suitable preparation of active compound, 1 part by weight of active compound is mixed with the stated amount of solvent, and the concentrate is diluted with water to the desired concentration.
50 μl compound solution is filled in microtiter plates and 150 μl IPL41 insect medium (33%+15% sugar) is added to obtain a total volume of 200 μl per well. Afterwards the plates are sealed with parafilm through which a mixed population of the green peach aphid (Myzus persicae) can suck on the compound preparation.
as §2

[4] = test system: Nezara viridula; assay: Nezara viridula spray test; conditions: in Hordeum vulgare, 96 h
Procedure: Nezara viridula—Spray Test
as §1, with “solvent,” for “solvents”, “and the concentrate” for “and”
Barley plants (Hordeum vulgare) infested with larvae of the southern green stink bug (Nezara viridula) are sprayed with a test solution containing the desired concentration of the active ingredient.
After 4 days mortality in % is determined. 100% means all the stink bugs have been killed; 0% means none of the stink bugs have been killed.

[5] = test system: Ctenocephalides felis; assay: Ctenocephalides felis in-vitro contact test adult cat flea; conditions: Ctenocephalides felis; 5 μg/cm^2 (=500 g/ha), after 48 hours; read-out: efficacy (fleas dead or moribund)
Procedure: Ctenocephalides felis—In-Vitro Contact Test Adult Cat Flea
9 mg compound is solved in 1 ml acetone and diluted with acetone to the desired concentration. 250 μl of the test solution is filled in 25 ml glass test tubes and homogeneously distributed on the inner walls by rotation and tilting on a shaking device (2 h at 30 rpm). With a compound concentration of 900 ppm, an inner surface of 44.7 cm^2 and a homogeneous distribution, a dose of 5 μg/cm^2 is achieved.
After the solvent has evaporated, each test tube is filled with 5-10 adult cat fleas (Ctenocephalides felis), closed with a perforated lid and incubated in a lying position at room temperature and relative humidity. After 48 hours efficacy is determined. The fleas are patted on the ground of the tubes and are incubated on a heating plate at 45-50° C. for at most 5 minutes. Immotile or uncoordinated moving fleas, which are not able to escape the heat by climbing upwards, are marked as dead or moribund.
An efficacy of 100% means all fleas are dead or moribund; 0% means no fleas are dead or moribund.

[6] = test system: Ctenocephalides felis; assay: Ctenocephalides felis oral test; conditions: Ctenocephalides felis, in Bos taurus, po, 48 h
Procedure: Ctenocephalides felis—Oral Test
(§3) Solvent: dimethyl sulfoxide
To produce a suitable preparation of active compound, 10 mg of active compound are dissolved in 0.5 ml solvent, and the concentrate is diluted with cattle blood to the desired concentration.
Approximately 20 adult unfed cat fleas (Ctenocephalides felis) are placed in flea chambers. The blood chamber, sealed with parafilm on the bottom, are filled with cattle blood supplied with compound solution and placed on the gauze covered top of the flea chamber, so that the fleas are able to suck the blood. The blood chamber is heated to 37° C. whereas the flea chamber is kept at room temperature.
After 2 days mortality in % is determined. 100% means all the fleas have been killed; 0% means none of the fleas have been killed.

[7] = test system: Boophilus microplus; assay: Boophilus microplus injection test; conditions: Rhipicephalus microplus, 168 h, 20 μg/animal, egg deposition after 7 days, read-out: efficacy (infertile eggs)
Procedure: Boophilus microplus—Injection Test
as §3
To produce a suitable preparation of active compound, 10 mg of active compound are dissolved in 0.5 ml solvent, and the concentrate is diluted with solvent to the desired concentration.
Five adult engorged female ticks (Boophilus microplus) are injected with 1 μl compound solution into the abdomen. The ticks are transferred into replica plates and incubated in a climate chamber.
After 7 days egg deposition of fertile eggs is monitored. Eggs where fertility is not visible are stored in a climate chamber till hatching after about 42 days. An efficacy of 100% means all eggs are infertile; 0% means all eggs are fertile.

[8] = test system: Nilaparvata lugens; assay: Nilaparvata lugens spray test; conditions: Nilaparvata lugens, in Oryza sativa, 96 h
Procedure: Nilaparvata lugens—Spray Test
as §1
Rice plants (Oryza sativa) are sprayed with a preparation of the active ingredient of the desired concentration and the plants are infested with the brown planthopper (Nilaparvata lugens).
After 4 days mortality in % is determined. 100% means all planthoppers have been killed and 0% means none of the planthoppers have been killed.

[9] = test system: Culex quinquefasciatus strain P00; assay: Culex quinquefasciatus test (CULXFA surface treatment & contact assay); conditions: 24 hours after contact, read-out: efficacy (mortality); for mortality at 4 mg/m2: surface concentration 4 mg/m^2, 30 minutes exposure; for mortality at 20 mg/m2: surface concentration 20 mg/m^2, 30 minutes exposure
Procedure: Culex quinquefasciatus Test (CULXFA Surface Treatment & Contact Assay)
(§4) Solvent: Aceton+2000 ppm rapeseed oil methyl ester (RME)
(§5) In order to produce a sufficient, active ingredient containing solution it is necessary to solve the test-compound in the solvent-mix (Acetone at 2 mg/ml/RME 2000 ppm). This solution is pipetted onto a glazed tile and after evaporation of the Acetone, adult mosquitoes of the species Culex quinquefasciatus strain P00 are placed onto the dried surface. The exposure time is 30 minutes.
(§6) Mortality in percent (%) is determined 24 hours after contact to the treated surface. 100% mortality means that all test-insects are dead, whereas 0% means that not a single insect died.

[10] = test system: Aedes aegypti strain MONHEIM; assay: Aedes aegypti test (AEDSAE surface treatment & contact assay); conditions: 24 hours after contact, read-out: efficacy (mortality); for mortality at 4 mg/m2: surface concentration 4 mg/m^2, 30 minutes exposure; for mortality at 20 mg/m2: surface concentration 20 mg/m^2, 30 minutes exposure
Procedure: Aedes aegypti Test (AEDSAE Surface Treatment & Contact Assay)
as §4
as §5, with “Aedes aegypti” for “Culex quinquefasciatus”, “MONHEIM” for “P00”
as §6

[11] = test system: Anopheles funestus strain FUMOZ-R; assay: Anopheles funestus test (ANPHFU surface treatment & contact assay); conditions: 24 hours after contact, read-out: efficacy (mortality); for mortality at 4 mg/m2: surface concentration 4 mg/m^2, 30 minutes exposure; for mortality at 20 mg/m2: surface concentration 20 mg/m^2, 30 minutes exposure
Procedure: Anopheles funestus Test (ANPHFU Surface Treatment & Contact Assay)
as §4
as §5, with “Anopheles funestus” for “Culex quinquefasciatus”, “FUMOZ-R (Hunt et al., Med Vet Entomol. 2005 September; 19(3):271-5)” for “P00”
as §6

[12] = test system: Spodoptera frugiperda; assay: Spodoptera frugiperda spray test; conditions: in Zea mays, 168 h
Procedure: Spodoptera frugiperda—Spray Test
as §1
Maize (Zea mays) leaf sections are sprayed with a preparation of the active ingredient of the desired concentration. Once dry, the leaf sections are infested with fall armyworm larvae (Spodoptera frugiperda).
After 7 days mortality in % is determined. 100% means all caterpillars have been killed and 0% means none of the caterpillars have been killed.

Row | Structure (SMILES) | mortality at 500 g/ha [1] | pest or weed control at 160 µg/disc, 160 µg/well [2] | mortality at 4 ppm [3] | mortality at 500 g/ha [4] | pest or weed control at 5 µg/cm2, 5 µg/cm2 [5] | mortality at 100 ppm [6] | pest or weed control at 0.02 mg [7] | mortality at 500 g/ha [8] | mortality at 4 mg/m2 [9] | mortality at 20 mg/m2 [9] | mortality at 4 mg/m2 [10] | mortality at 20 mg/m2 [10] | mortality at 4 mg/m2 [11] | mortality at 20 mg/m2 [11] | mortality at 500 g/ha [12]
1 | CC(c1ncnn1-c1ncccn1)N(CCC(F)(F)F)C(=O)c1cc(Cl)cc(S(C)(=O)=O)c1 (stereo not shown) [Example I-039] | 100% | 100% | 100% | 100% | 100% | 100% | 100% | 100% | – | – | – | – | – | – | –
2 | CC(c1ncnn1-c1ncccn1)N(CC(F)F)C(=O)c1cc(Cl)cc(S(C)(=O)=O)c1 (stereo not shown) [Example I-041] | – | 100% | 100% | 100% | 90% | 100% | 100% | 100% | 80 to 100% | 80 to 100% | 80 to 100% | 90 to 100% | 85 to 100% | 85 to 100% | –
3 | CON=C(C)c1cc(Cl)cc(C(=O)N[C@@H](C)c2ncnn2-c2ncccn2)c1 [Example I-057, 3-chloro-5-(N-methoxyethanimidoyl)-N-{(1S)-1-[1-(pyrimidin-2-yl)-1H-1,2,4-triazol-5-yl]ethyl}benzamide] | 90% | 80% | 100% | 100% | 100% | 100% | – | – | – | 80 to 100% | 80 to 100% | 90 to 100% | – | – | 100%
4 | C[C@H](NC(=O)c1cc(Cl)cc(S(C)(=O)=O)c1)c1nc(C(F)(F)F)nn1-c1ncccn1 [Example I-091, 3-chloro-N-{(1S)-1-[1-(2-pyrimidinyl)-3-(trifluoromethyl)-1H-1,2,4-triazol-5-yl]ethyl}-5-(methylsulfonyl)benzamide] | 90% | 100% | 100% | 100% | 100% | 100% | – | – | 80 to 100% | 80 to 100% | 80 to 100% | 90 to 100% | – | 85 to 100% | 83%
5 | C[C@H](NC(=O)c1cc(Cl)cc([S+]([O-])CC(F)(F)F)c1)c1ncnn1-c1ncccn1 (stereo partly drawn) [Example I-092, 3-chloro-N-{(1S)-1-[1-(pyrimidin-2-yl)-1H-1,2,4-triazol-5-yl]ethyl}-5-[(2,2,2-trifluoroethyl)sulfinyl]benzamide] | 100% | 100% | 100% | 100% | 80% | – | – | 100% | 80 to 100% | 80 to 100% | 80 to 100% | 90 to 100% | 85 to 100% | – | –
6 | C[C@@H](NC(=O)c1cc(Cl)cc(S(C)(=O)=O)c1)c1ncnn1-c1ncc(C(F)(F)F)cn1 [Example I-095] | 90% | 100% | 100% | 100% | 100% | – | – | – | – | – | – | – | – | – | 100%
7 | Cc1cnc(-n2ncnc2[C@@H](C)NC(=O)c2cc(Cl)cc(S(C)(=O)=O)c2)nc1 [Example I-096] | 90% | – | 100% | 100% | – | – | – | – | – | – | – | – | – | – | 100%
8 | Cc1cnc(-n2ncnc2[C@@H](C)NC(=O)c2cc(Cl)cc(S(=O)(=O)C(F)(F)F)c2)nc1 [Example I-099] | 100% | 100% | 100% | 100% | – | – | – | – | – | – | – | – | – | – | 100%
9 | C[C@@H](NC(=O)c1csc(Cl)c1)c1ncnn1-c1ccc(C#N)cn1 [Example I-114] | 90% | 100% | – | – | – | – | – | – | – | – | – | – | – | – | –
10 | C[C@H](NC(=O)c1cc(Cl)cc(C2(C#N)CC2)c1)c1ncnn1-c1ccc(C#N)cn1 [Example I-119, 3-chloro-5-(1-cyanocyclopropyl)-N-{(1S)-1-[1-(5-cyanopyridin-2-yl)-1H-1,2,4-triazol-5-yl]ethyl}benzamide] | 90% | 100% | 100% | 100% | – | – | – | – | – | – | – | – | – | – | 100%
11 | C[C@@H](NC(=O)c1cc(Cl)cc(C(C)(C)C)c1)c1ncnn1-c1ncccn1 [Example I-124] | 100% | 100% | – | 100% | – | – | – | – | – | – | – | – | – | – | –
